Test results from the NIST ThermoML archive (doi:10.1016/j.tca.2011.06.003).

Test: xn = mol fraction of the nth substance listed
Settings: 101 kPa, Liquid; for speed of sound: Sing-around technique in a fixed-path interferometer; for mass density: Vibrating tube method

NCCNCCN [di(2-aminoethyl)amine] + CC(C)O
Settings | mass density [kg/m3] | speed of sound [m/s] | viscosity [mPa·s]
293.15 K, x1 = 0.0534 | 803.892 | 1206.4 | –
293.15 K, x1 = 0.1022 | 818.972 | 1244.9 | –
293.15 K, x1 = 0.1556 | 830.953 | 1283.2 | –
293.15 K, x1 = 0.2053 | 842.389 | 1318.6 | –
293.15 K, x1 = 0.2541 | 852.667 | 1350.5 | –
293.15 K, x1 = 0.3083 | 863.147 | 1383.9 | –
293.15 K, x1 = 0.4044 | 880.002 | 1438.7 | –
293.15 K, x1 = 0.5025 | 894.43 | 1488.6 | –
293.15 K, x1 = 0.6122 | 909.336 | 1538.2 | –
293.15 K, x1 = 0.711 | 921.252 | 1583.2 | –
293.15 K, x1 = 0.8021 | 930.895 | 1618.9 | –
293.15 K, x1 = 0.8555 | 936.343 | 1638 | –
293.15 K, x1 = 0.9092 | 941.621 | 1658.5 | –
293.15 K, x1 = 0.953 | 945.719 | 1673.3 | –
298.15 K, x1 = 0.0532 | – | – | 2.514
298.15 K, x1 = 0.0534 | 799.63 | 1188.7 | –
298.15 K, x1 = 0.1022 | 814.391 | 1227.2 | 2.884
298.15 K, x1 = 0.1556 | 826.675 | 1265.5 | 3.313
298.15 K, x1 = 0.2053 | 838.104 | 1300.9 | 3.628
298.15 K, x1 = 0.2541 | 848.377 | 1332.6 | 3.97
298.15 K, x1 = 0.3083 | 858.864 | 1365.9 | 4.268
298.15 K, x1 = 0.4044 | 875.743 | 1420.7 | 4.708
298.15 K, x1 = 0.5025 | 890.185 | 1470 | 4.984
298.15 K, x1 = 0.6122 | 905.106 | 1518.9 | 5.192
298.15 K, x1 = 0.711 | 917.035 | 1563.1 | 5.223
298.15 K, x1 = 0.8021 | 926.667 | 1599.5 | 5.286
298.15 K, x1 = 0.8555 | 932.115 | 1618.5 | 5.383
298.15 K, x1 = 0.9092 | 937.389 | 1638.7 | 5.441
298.15 K, x1 = 0.953 | 941.486 | 1653.4 | 5.54
303.15 K, x1 = 0.0532 | – | – | 2.087
303.15 K, x1 = 0.0534 | 795.321 | 1171.2 | –
303.15 K, x1 = 0.1022 | 809.803 | 1209.5 | 2.388
303.15 K, x1 = 0.1556 | 822.362 | 1247.7 | 2.697
303.15 K, x1 = 0.2053 | 833.79 | 1282.9 | 2.976
303.15 K, x1 = 0.2541 | 844.065 | 1314.6 | 3.217
303.15 K, x1 = 0.3083 | 854.559 | 1347.8 | 3.423
303.15 K, x1 = 0.4044 | 871.471 | 1402.2 | 3.721
303.15 K, x1 = 0.5025 | 885.922 | 1452.9 | 3.901
303.15 K, x1 = 0.6122 | 900.866 | 1503.2 | 4.08
303.15 K, x1 = 0.711 | 912.782 | 1543 | 4.184
303.15 K, x1 = 0.8021 | 922.433 | 1579.1 | 4.264
303.15 K, x1 = 0.8555 | 927.887 | 1599 | 4.357
303.15 K, x1 = 0.9092 | 933.158 | 1619 | 4.423
303.15 K, x1 = 0.953 | 937.25 | 1634.5 | 4.47
308.15 K, x1 = 0.0532 | – | – | 1.858
308.15 K, x1 = 0.0534 | 790.957 | 1153.7 | –
308.15 K, x1 = 0.1022 | 805.422 | 1191.8 | 2.064
308.15 K, x1 = 0.1556 | 818.019 | 1230 | 2.315
308.15 K, x1 = 0.2053 | 829.45 | 1265.1 | 2.526
308.15 K, x1 = 0.2541 | 839.731 | 1296.8 | 2.708
308.15 K, x1 = 0.3083 | 850.238 | 1329.7 | 2.875
308.15 K, x1 = 0.4044 | 867.103 | 1383.3 | 3.121
308.15 K, x1 = 0.5025 | 881.653 | 1432.7 | 3.296
308.15 K, x1 = 0.6122 | 896.616 | 1483.5 | 3.442
308.15 K, x1 = 0.711 | 908.535 | 1525.3 | 3.539
308.15 K, x1 = 0.8021 | 918.202 | 1561.5 | 3.608
308.15 K, x1 = 0.8555 | 923.66 | 1580.4 | 3.683
308.15 K, x1 = 0.9092 | 928.927 | 1599.6 | 3.734
308.15 K, x1 = 0.953 | 933.022 | 1615.1 | 3.771
313.15 K, x1 = 0.0534 | 786.529 | 1136.1 | –
313.15 K, x1 = 0.1022 | 801.012 | 1174.3 | –
313.15 K, x1 = 0.1556 | 813.627 | 1212.7 | –
313.15 K, x1 = 0.2053 | 825.068 | 1247.5 | –
313.15 K, x1 = 0.2541 | 835.36 | 1278.6 | –
313.15 K, x1 = 0.3083 | 845.885 | 1311.4 | –
313.15 K, x1 = 0.4044 | 862.786 | 1365.6 | –
313.15 K, x1 = 0.5025 | 877.353 | 1415.7 | –
313.15 K, x1 = 0.6122 | 892.409 | 1467 | –
313.15 K, x1 = 0.711 | 904.278 | 1509.1 | –
313.15 K, x1 = 0.8021 | 913.964 | 1543.4 | –
313.15 K, x1 = 0.8555 | 919.421 | 1562.1 | –
313.15 K, x1 = 0.9092 | 924.691 | 1580.8 | –
313.15 K, x1 = 0.953 | 928.787 | 1595.2 | –
